According to PMC11272978, “Exploring the central region of amylin and its analogs aggregation: the influence of metal ions and residue substitutions” (Frontiers in Chemistry, 2024):
Entries after “also recorded” stand apart in the source; their conditions may differ. No end group written: not given here.

Legend:
[1] = Atomic force microscopy (AFM) of fibrils; format: physicochemical
Method: AFM imaging was conducted in a 256-scanning line at a 1 Hz scanning rate by using Bruker’s Nano Dimension Icon (Bruker Nano Inc., Germany). In this procedure, 200–300 μM hIAPP-F and Pramlintide-M were incubated with and without selected metal ions at 25°C for 24 h. All the samples were dissolved in 50 mM phosphate buffer (pH 7.4). The height of peptide aggregates was obtained from its section tool through Nano Scope Analysis 1.5, and the line position with average effects in the images was selected, except peptides alone in fibril form.

[2] = test system: HeLa cells; experiment: CCK-8 cytotoxicity assay; format: cell-based, human
Method: The cytotoxicity of the different peptides (rIAPP-F, hIAPP-F, Pramlintide-F, hIAPP-M, rIAPP-M, Pramlintide-M, and hIAPP) was tested using CCK-8 assay according to the manufacturer’s protocol. Briefly, cervical carcinoma cells (HeLa) were seeded into 96 well plates 8 × 10^3 cells/well in 100 µL DMEM culture medium with 10% FBS and 1% Penicillin-Streptomycin and incubated in a 5% CO2 incubator at 37°C overnight. After that, the cells were incubated with the different peptides prepared in deionized water at concentrations (200, 400, 600, and 800 μg/mL) for 24 h. In addition, the cytotoxicity of hIAPP-F and Pramlintide-M prepared in 0.5 mg/mL Cu(NO3)2 and ZnCl2 solutions at the same concentrations (200, 400, 600, and 800 μg/mL) was also tested. Cells without any treatment were used as a control, and all the conditions were done in triplicates. After 24 h, the media was discarded from the plate, and cells were washed with PBS. Then, 10 µL of CCK-8 and 90 µL of fresh DMEM media were added to each well and incubated for 4 h. The absorbance was measured at OD = […] using a microplate spectrophotometer (BioRad-xMark Microplate Absorbance Spectrophotometer). The ratio of the absorbance at 570/605 was calculated, and the average absorbance value of wells without cells was considered as blank and subtracted from all wells to cancel the background noise. The cells without any treatment were used as a control, and their mean value was considered 100% viable. The other treated cells’ viability was calculated using the formula: Cells viability % = (Corrected Mean Absorbance of treated cells)/(Corrected Mean Absorbance of control) ×100.

[3] = Thioflavin-T (ThT) aggregation assay; format: physicochemical; details: 40 μM peptide, 20 μM ThT, 50 mM phosphate buffer pH 7.4, 25°C; for ThT fluorescence intensity (aggregation), peptide alone: ex 485/20, em 528/20 nm, read each 5 min; for ThT fluorescence intensity (aggregation) with Cu(II): Cu(II) (Cu(NO3)2) 1:1; for ThT fluorescence intensity (aggregation) with Zn(II): Zn(II) (ZnCl2) 1:1
Method: (§1) Preparation of IAPP fragments solutions and thioflavin-T aggregation assays were performed as described earlier ([Alghrably et al., 2020]). In brief, IAPP fragments were dissolved in 50 mM phosphate buffer to concentrations of 1 mM. Stock solutions were diluted to the desired concentrations, and samples were used fresh each time. It is important to mention that due to the observation of turbidity after dissolving hIAPP-F and Pramlintide-M, both peptides were sonicated for 25 min. All of the aggregation reactions were conducted at 25°C with 40 μM IAPP fragments/mutants (final concentration) in 50 mM phosphate buffer (pH 7.4), and 20 μM thioflavin T in a final volume of 200 μL in each of the 96-well flat-bottom black plate (Corning 3915). We tested the aggregation of each IAPP fragment/mutants alone and with the addition of two metal ions Cu(II) and Zn(II). The metal ions were added to the IAPP fragments in 1:1 ratio. The plate was sealed with transparent film (Duck Brand Crystal Clear Tape, Avon, OH). Thioflavin T fluorescence emission at 528/20 nm (excitation at 485/20) was monitored on a Cytation 5 Multi-Mode Microplate. The measurements were collected by top reading each 5 min after a 3 s shake with an extended gain.

[4] = 1D 1H NMR signal intensity over time (aggregation); format: physicochemical; details: 310 K, over 44 hours; for NMR signal intensity over time (signal loss = aggregation), peptide alone: D2O with 20 mM phosphate buffer pH 7.4, 1.5 mM peptide (100 μM for hIAPP-F and Pramlintide-M)
Method: All peptides (except hIAPP-F and Pramlintide-M) were dissolved in 99.8% deuterium oxide containing 20 mM of phosphate buffer (pH 7.4). All samples contained 1.5 mM peptide concentration in 600 μL of sample volume except for hIAPP-F and Pramlintide-M, for which the final concentration was 100 μM (both peptides have a high tendency to aggregate at room temperature). The samples’ pH was manually adjusted to 7.4 with 0.1 M NaOD stock solution in 100% D2O. These samples were used for the ^1H and ^13C resonances assignment based on 2D spectra: ^1H-^13C HSQC ([Bodenhausen and Ruben, 1980]) tuned for the aliphatic region, HSQC-TOCSY ([Koz´min´ski and Koz´min´ski, 1999]), ^1H-^1H TOCSY ([Braunschweiler and Ernst, 1983]) mixing time 20 ms and 80 ms, ^1H-^1H ROESY ([Davis, 1985]) mixing time 300 ms and 500 ms. During the hIAPP-F and Pramlintide-M sample preparation, a temperature of 90°C was used to dissolve the peptides. After that, both samples were sonicated during the cooling down process to obtain a homogeneous solution. Spectra were measured immediately after sample preparation. The samples with the addition of metal ions were prepared with the same method as the samples of high tendency aggregation peptides hIAPP-F and Pramlintide-M.
All experiments were performed at a temperature of 310 K. The NMR spectra were acquired on spectrometers of 950, 800, and 700 MHz Bruker Avance NEO equipped with cryogenic TCI probes: • rIAPP-F, hIAPP-F, Pramlintide-M: 700 MHz, ^1H frequency = 700.21 MHz, ^13C frequency = 176.07 MHz • rIAPP-M: 800 MHz, ^1H frequency = 800.18 MHz, ^13C frequency = 201.21 MHz • Pramlintide-F, hIAPP-M: 950 MHz, ^1H frequency = 950.30 MHz, ^13C frequency = 238.96 MHz

[5] = Turbidity on dissolving the peptide; format: physicochemical; details: dissolved in 50 mM phosphate buffer to 1 mM; observation; peptides then sonicated for 25 min
Method: as §1

[6] = 200 µM peptide alone, phosphate buffer pH 7.4, 25°C, 24 h, cross-section profile
[7] = 200 µM peptide, phosphate buffer pH 7.4, 25°C, 24 h
[8] = peptide:Cu(II) 1:1, 200 µM, phosphate buffer pH 7.4, 24 h

Compound	NMR signal intensity over time (signal loss = aggregation), peptide alone [4]	fibril morphology (AFM), peptide alone [1, 7]	ThT fluorescence intensity (aggregation), peptide alone [3]	ThT fluorescence intensity (aggregation) with Cu(II) [3]	ThT fluorescence intensity (aggregation) with Zn(II) [3]	other results
CC[C@H](C)[C@H](NC(=O)[C@H](C)NC(=O)CNC(=O)[C@H](Cc1ccccc1)NC(=O)[C@H](CC(N)=O)NC(=O)[C@H](CC(N)=O)NC(=O)[C@H](CO)NC(=O)[C@H](CO)NC(=O)[C@H](Cc1c[nH]cn1)NC(=O)[C@@H](NC(=O)[C@H](CC(C)C)NC(=O)[C@H](Cc1ccccc1)NC(=O)[C@H](CC(N)=O)NC(=O)[C@H](C)NC(=O)[C@H](CC(C)C)NC(=O)[C@H](CCCNC(=N)N)NC(=O)[C@H](CCC(N)=O)NC(=O)[C@@H](NC(=O)[C@H](C)NC(=O)[C@@H]1CSSC[C@H](NC(=O)[C@@H](N)CCCCN)C(=O)N[C@@H](CC(N)=O)C(=O)N[C@@H]([C@@H](C)O)C(=O)N[C@@H](C)C(=O)N[C@@H]([C@@H](C)O)C(=O)N1)[C@@H](C)O)C(C)C)C(=O)N[C@@H](CC(C)C)C(=O)N[C@@H](CO)C(=O)N[C@@H](CO)C(=O)N[C@H](C(=O)N[C@@H](CC(N)=O)C(=O)N[C@H](C(=O)NCC(=O)N[C@@H](CO)C(=O)N[C@@H](CC(N)=O)C(=O)N[C@H](C(=O)N[C@@H](Cc1ccc(O)cc1)C(N)=O)[C@@H](C)O)C(C)C)[C@@H](C)O [hIAPP]	–	relatively short worm-like fibrils	–	–	–	diameter of helical fibrils (AFM) [1, 6]: 5–6 nm; diameter of ribbon fibrils (AFM) [1, 6]: around 2 nm; fibril length (AFM), some fibrils, peptide alone ([1]; 200 µM peptide alone, phosphate buffer pH 7.4, 24 h, fibrils vary in length): > 2 µm; average fibril length (AFM) with Cu(II) [1, 8]: less than 2 µm; fibril diameter (AFM) with Cu(II) [1, 8]: 2–3 nm; fibril morphology (AFM) with Cu(II) [1, 8]: unique looping structure; effect on cell viability, peptide alone ([2]; HeLa cells, 200, 400, 600 and 800 μg/mL, 24 h, CCK-8, n = 3): highest level of toxicity; cell viability at 400 μg/mL ([2]; HeLa cells, 24 h, CCK-8, peptide in deionized water, triplicates): 0%
SNNFGAILSS [hIAPP-F]	decreased over time	twisted fibril	–	completely inhibited the aggregation	increased the fluorescence intensity	turbidity after dissolving [5]: turbidity; fibril diameter (AFM), peptide alone ([1]; 200 µM peptide, phosphate buffer pH 7.4, 25°C, 24 h, profile analysis): approximately 6 nm; fibril diameter (AFM) with Zn(II) ([1]; peptide:Zn 1:1, 200 µM, phosphate buffer pH 7.4, 24 h): same diameter as the matured helical-structured fibrils; time to reach saturation phase (ThT), peptide alone [3]: ~2.5 h; time to reach saturation phase (ThT) with Zn(II) ([3]; Zn(II) 1:1): ~2.5 h; cell viability at 800 μg/mL ([2]; HeLa cells, 24 h, CCK-8, peptide in deionized water, highest concentration tested, triplicates): 60%; cell viability, peptide-Cu(II) complex ([2]; HeLa cells, peptide 200-800 μg/mL prepared in 0.5 mg/mL Cu(NO3)2, 24 h, CCK-8, n = 3): high cell viability; cell viability / proliferation, peptide with Zn(II) ([2]; HeLa cells, peptide 200-800 μg/mL prepared in 0.5 mg/mL ZnCl2, 24 h, CCK-8, n = 3): high cell proliferation rate; NMR signal intensity deterioration with Zn(II) ([4]; 100 μM peptide, pH 7.4, with Zn(II)): occurred faster in the presence of Zn(II)
SNNFGPILPP [Pramlintide-F, fragment derived from pramlintide, central region]	no signal loss was observed over time	–	no increase in fluorescence intensity; also recorded: did not show any increase in the fluorescence intensity	neither metal ions Cu(II) nor Zn(II) have any influence on the aggregation rate	neither metal ions Cu(II) nor Zn(II) have any influence on the aggregation rate	–

Second part, led by results:

NMR signal intensity over time (signal loss = aggregation), peptide alone [4]	Compound	fibril morphology (AFM), peptide alone [1, 7]	ThT fluorescence intensity (aggregation), peptide alone [3]	ThT fluorescence intensity (aggregation) with Cu(II) [3]	ThT fluorescence intensity (aggregation) with Zn(II) [3]	other results
no signal loss was observed over time	SNNFGAILPP [hIAPP-M, custom-designed mutated fragment of human amylin, last two serins mutated with prolines]	–	no increase in fluorescence intensity; also recorded: did not show any increase in the fluorescence intensity	neither metal ions Cu(II) nor Zn(II) have any influence on the aggregation rate	neither metal ions Cu(II) nor Zn(II) have any influence on the aggregation rate	–
no signal loss was observed over time	SNNLGPILPP [rIAPP-M, custom-designed mutated fragment of rat amylin]	–	no increase in fluorescence intensity; also recorded: did not show any increase in the fluorescence intensity	neither metal ions Cu(II) nor Zn(II) have any influence on the aggregation rate	neither metal ions Cu(II) nor Zn(II) have any influence on the aggregation rate	–
no signal loss was observed over time	SNNLGPVLPP [rIAPP-F, fragment derived from rat amylin, central region]	–	did not show any increase in the fluorescence intensity	neither metal ions Cu(II) nor Zn(II) have any influence on the aggregation rate	neither metal ions Cu(II) nor Zn(II) have any influence on the aggregation rate	–
